For 22 molecules, inhibition results are on record in patent US11225480B2, “Malic enzyme inhibitors” (SUN PHARMA ADVANCED RESEARCH COMPANY LTD, priority 2019, dated 2022).

Broadly, the inhibition is the percentage by which the read-out fell short of the control.

Common to all, as to format: biochemical
The target of one test is human ME2 enzyme (Homo sapiens, UniProt P23368). Nature of the test: ME2 inhibition assay (diaphorase/resazurin coupled fluorescence). Particulars: 10 μM compound concentration; read-out: Malic Enzyme 2 % inhibition (10 μM). The method, boiled down:
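Human ME2 (10 μL of 60 nM) was preincubated 5 min at room temperature with compound (10 μM) in 50 mM Tris-HCl pH 7.5, 10 mM MnCl2, 7 mM L-malate, 50 μM resazurin and 0.025 mg/ml diaphorase. The reaction was started with 10 μL of 2 mM β-NAD+ and run 2 hours at room temperature. Resorufin fluorescence (ex 540/em 600 nm) was normalized to enzyme-only (100%) and no-enzyme (0%) controls as % activity.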
For orientation: The colour change of resazurin is a common sign of viable cells or microbes.

In the next test the target is T1, human ME3 enzyme (Homo sapiens, UniProt Q16798).
T1 sequence (Q16798 1-604): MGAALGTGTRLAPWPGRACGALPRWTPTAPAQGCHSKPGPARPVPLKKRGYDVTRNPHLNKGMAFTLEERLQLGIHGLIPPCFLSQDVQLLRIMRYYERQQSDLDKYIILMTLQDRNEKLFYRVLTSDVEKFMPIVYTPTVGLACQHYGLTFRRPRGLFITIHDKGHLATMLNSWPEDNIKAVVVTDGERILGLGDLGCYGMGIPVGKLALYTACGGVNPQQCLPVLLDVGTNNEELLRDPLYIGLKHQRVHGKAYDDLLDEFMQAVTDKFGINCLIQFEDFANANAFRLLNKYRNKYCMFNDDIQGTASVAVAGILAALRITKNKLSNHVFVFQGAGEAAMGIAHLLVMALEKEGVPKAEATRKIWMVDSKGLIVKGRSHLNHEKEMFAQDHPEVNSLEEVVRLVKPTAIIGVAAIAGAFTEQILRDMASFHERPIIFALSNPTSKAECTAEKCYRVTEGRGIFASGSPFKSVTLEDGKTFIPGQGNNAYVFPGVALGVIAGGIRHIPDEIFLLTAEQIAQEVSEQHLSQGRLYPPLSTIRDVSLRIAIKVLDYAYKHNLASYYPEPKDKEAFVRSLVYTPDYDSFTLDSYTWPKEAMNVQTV
The experiment in a line: ME3 inhibition assay (diaphorase/resazurin coupled fluorescence). Particulars: 10 μM compound concentration; read-out: Malic Enzyme 3 % inhibition (10 μM). A digest of the protocol: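 Coupled read-out: NADPH made by human ME3 (20 nM stock) drives diaphorase conversion of resazurin (50 μM) to resorufin; buffer 50 mM Tris-HCl pH 7.5, 10 mM MnCl2, 3 mM L-malate.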

In a further test the target is T2, human ME1 enzyme (Homo sapiens, UniProt P48163).
T2 sequence (P48163 1-572): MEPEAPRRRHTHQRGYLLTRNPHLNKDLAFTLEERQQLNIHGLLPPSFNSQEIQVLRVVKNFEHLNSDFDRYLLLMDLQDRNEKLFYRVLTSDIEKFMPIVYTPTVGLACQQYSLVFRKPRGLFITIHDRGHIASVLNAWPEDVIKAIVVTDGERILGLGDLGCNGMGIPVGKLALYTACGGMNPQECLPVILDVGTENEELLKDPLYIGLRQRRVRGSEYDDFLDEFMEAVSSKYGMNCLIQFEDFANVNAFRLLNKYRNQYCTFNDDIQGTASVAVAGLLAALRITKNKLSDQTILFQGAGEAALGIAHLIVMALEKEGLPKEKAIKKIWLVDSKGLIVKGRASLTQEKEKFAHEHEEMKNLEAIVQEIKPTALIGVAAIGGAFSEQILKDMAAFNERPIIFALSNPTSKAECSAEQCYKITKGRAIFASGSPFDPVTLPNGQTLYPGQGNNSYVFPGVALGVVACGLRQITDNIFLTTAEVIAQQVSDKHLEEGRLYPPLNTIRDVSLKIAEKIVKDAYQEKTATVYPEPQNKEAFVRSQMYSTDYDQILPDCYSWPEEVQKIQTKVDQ
The experiment in a line: ME1 inhibition assay (diaphorase/resazurin coupled fluorescence). To be noted: 10 μM compound concentration; read-out: Malic Enzyme 1 % inhibition (10 μM). A digest of the protocol:
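Compounds at 10 μM preincubated 15 min in 50 mM Tris-HCl pH 7.5, 10 mM MnCl2, 2 mM L-malate, 10 μM resazurin, 0.01 mg/ml diaphorase, then human ME1 added for 5 min; reaction started with NADP+ and run 2 h at room temperature. Resorufin fluorescence (ex 540/em 600 nm) normalized to enzyme-only (100%) and no-enzyme (0%) controls.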

human ME2 enzyme, sequence (P23368 19-584): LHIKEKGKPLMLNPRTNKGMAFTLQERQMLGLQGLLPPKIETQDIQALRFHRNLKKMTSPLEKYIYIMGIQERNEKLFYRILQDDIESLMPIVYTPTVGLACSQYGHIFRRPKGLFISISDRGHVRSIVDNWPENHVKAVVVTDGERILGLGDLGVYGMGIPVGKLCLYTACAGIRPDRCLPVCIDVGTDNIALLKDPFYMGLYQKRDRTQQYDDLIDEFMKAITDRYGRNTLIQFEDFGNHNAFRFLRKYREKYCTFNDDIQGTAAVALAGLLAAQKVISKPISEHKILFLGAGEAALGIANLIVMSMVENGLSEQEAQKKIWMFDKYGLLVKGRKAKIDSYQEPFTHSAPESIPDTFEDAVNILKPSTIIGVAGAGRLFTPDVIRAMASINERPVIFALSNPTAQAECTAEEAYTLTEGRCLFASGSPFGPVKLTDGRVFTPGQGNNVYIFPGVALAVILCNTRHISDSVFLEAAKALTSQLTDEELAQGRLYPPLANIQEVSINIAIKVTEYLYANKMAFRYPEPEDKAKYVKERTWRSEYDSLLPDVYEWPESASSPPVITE

Consider `N#Cc1ccc(CCC(=O)N2CCN(c3ccc(O)cn3)CC2)cc1` [I.138, 3-(4-Cyano-phenyl)-1-[4-(5-hydroxy-pyridin-2-yl)-piperazin-1-yl]-propan-1-one], for which the inhibition at 10 µM at human ME2 enzyme, at human ME3 enzyme and on human ME1 enzyme was > 90% each time.
Take `O=C(CCc1ccc(C(F)(F)F)cc1)N1CCN(c2ccc(O)cn2)CC1` [I.139, 3-(4-Trifluoro-methylphenyl)-1-[4-(5-hydroxy-pyridin-2-yl)-piperazin-1-yl]-propan-1-one]: the inhibition at 10 µM at human ME2 enzyme, on human ME3 enzyme and on human ME1 enzyme was > 90% in each case.
For the molecule `O=C(CCC1CC1)N1CCN(c2ccc(O)cn2)CC1` [I.140, 3-Cyclo-propyl-1-[4-(5-hydroxy-2-pyridyl)-piperazin-1-yl]propan-1-one], the inhibition at 10 µM on human ME2 enzyme, on human ME3 enzyme and on human ME1 enzyme was > 90% throughout.
With `O=C(O)c1ccccc1CCC(=O)N1CCN(c2ccc(O)cn2)CC1` [I.141, 2-{3-[4-(5-Hydroxy-pyridin-2-yl)-piperazin-1-yl]-3-oxo-propyl}-benzoic acid], the inhibition at 10 µM on human ME2 enzyme is > 90%; on human ME3 enzyme, > 90%; on human ME1 enzyme it was 70 to 89%.
Consider `COC(=O)c1ccccc1CCC(=O)N1CCN(c2ccc(O)cn2)CC1` [I.142, 2-{3-[4-(5-Hydroxy-pyridin-2-yl)-piperazin-1-yl]-3-oxo-propyl}-benzoic acid methyl ester], for which the results for the inhibition at 10 µM on human ME2 enzyme, at human ME3 enzyme and at human ME1 enzyme were > 90%, > 90% and 70 to 89%, respectively.
Regarding `O=C(CSc1ccccc1Br)N1CCN(c2ccc(O)cn2)CC1` [I.143, 2-(2-Bromo-phenylsulfanyl)-1-[4-(5-hydroxy-pyridin-2-yl)-piperazin-1-yl]-ethanone], the inhibition at 10 µM on human ME2 enzyme, at human ME3 enzyme and on human ME1 enzyme was > 90% each time.
Regarding `O=C(C(O)Cc1ccccc1)N1CCN(c2ccc(O)cn2)CC1` (stereo not drawn) [I.144, 2-Hydroxy-1-[4-(5-hydroxy-pyridin-2-yl)-piperazin-1-yl]-3-phenyl-propan-1-one], the inhibition at 10 µM on human ME2 enzyme is > 90%; at human ME3 enzyme it was > 90%; on human ME1 enzyme, 50 to 69%.
As for `Cc1cc(F)ccc1CCC(=O)N1CCN(c2ccc(O)cn2)CC1` [I.145, 3-(4-Fluoro-2-methyl-phenyl)-1-[4-(5-hydroxy-pyridin-2-yl)-piperazin-1-yl]-propan-1-one], the inhibition at 10 µM at human ME2 enzyme, on human ME3 enzyme and at human ME1 enzyme was > 90% each time.
For the molecule `Cc1cccc(CCC(=O)N2CCN(c3ccc(O)cn3)CC2)c1C` [I.146, 3-(2,3-Dimethyl-phenyl)-1-[4-(5-hydroxy-pyridin-2-yl)-piperazin-1-yl]-propan-1-one], the inhibition at 10 µM on human ME2 enzyme, at human ME3 enzyme and on human ME1 enzyme was > 90% each time.
As for `Cc1cccc(C)c1CCC(=O)N1CCN(c2ccc(O)cn2)CC1` [I.147, 3-(2,6-Dimethyl-phenyl)-1-[4-(5-hydroxy-pyridin-2-yl)-piperazin-1-yl]-propan-1-one], the inhibition at 10 µM on human ME2 enzyme, at human ME3 enzyme and on human ME1 enzyme was > 90% throughout.
Regarding `O=C(Cc1cc(F)cc(F)c1)N1CCN(c2ccc(O)cc2)CC1` [I.148, 2-(3,5-difluoro-phenyl)-1-[4-(4-hydroxy-phenyl)-piperazin-1-yl]-ethanone], the inhibition at 10 µM on human ME2 enzyme, on human ME3 enzyme and on human ME1 enzyme was > 90% each time.
As to `O=C(Cc1ccc(F)cc1F)N1CCN(c2ccc(O)cc2)CC1` [I.149, 2-(2,4-difluoro-phenyl)-1-[4-(4-hydroxy-phenyl)-piperazin-1-yl]-ethanone], the inhibition at 10 µM on human ME2 enzyme, on human ME3 enzyme and at human ME1 enzyme was > 90% each time.
As for `O=C(Cc1c[nH]c2ccc(F)cc12)N1CCN(c2ccc(O)cc2)CC1` [I.150, 2-(5-fluoro-1H-indol-3-yl)-1-[4-(4-hydroxy-phenyl)-piperazin-1-yl]-ethanone], the inhibition at 10 µM at human ME2 enzyme, on human ME3 enzyme and on human ME1 enzyme was > 90% each time.
For `O=C(CSc1ccccc1Br)N1CCN(c2ccc(O)cc2)CC1` [I.151, 2-(2-bromo-phenylsulfanyl)-1-[4-(4-hydroxy-phenyl)-piperazin-1-yl]-ethanone], the inhibition at 10 µM at human ME2 enzyme, at human ME3 enzyme and at human ME1 enzyme was > 90% throughout.
For `O=C(CCc1ccc(F)cc1F)N1CCN(c2ccc(O)cn2)CC1` [I.152, 3-(2,4-Difluoro-phenyl)-1-[4-(5-hydroxy-pyridin-2-yl)-piperazin-1-yl]-propan-1-one], the inhibition at 10 µM on human ME2 enzyme, on human ME3 enzyme and at human ME1 enzyme was > 90% each time.
Consider `O=C(CCc1ccc(F)c(F)c1)N1CCN(c2ccc(O)cn2)CC1` [I.153, 3-(3,4-Difluoro-phenyl)-1-[4-(5-hydroxy-pyridin-2-yl)-piperazin-1-yl]-propan-1-one], for which the inhibition at 10 µM on human ME2 enzyme, at human ME3 enzyme and at human ME1 enzyme was > 90% each time.
Take `Cc1cccc(Cl)c1C(=O)N1CCN(c2ccc(O)cc2)CC1` [I.154, (2-Chloro-6-methylphenyl)-[4-(4-hydroxy-phenyl)-piperazin-1-yl]-methanone]: the inhibition at 10 µM on human ME2 enzyme, at human ME3 enzyme and on human ME1 enzyme was > 90% throughout.
As to `O=C(c1c[nH]c2ccc(F)cc12)N1CCN(c2ccc(O)cn2)CC1` [I.155, (5-Fluoro-1H-indol-3-yl)-[4-(5-hydroxy-pyridin-2-yl)-piperazin-1-yl]-methanone], the inhibition at 10 µM on human ME2 enzyme, on human ME3 enzyme and at human ME1 enzyme was > 90% each time.
For `O=C(c1c[nH]c2ccc(F)cc12)N1CCN(c2ccc(O)cc2)CC1` [I.156, (5-Fluoro-1H-indol-3-yl)-[4-(4-hydroxy-phenyl)-piperazin-1-yl]-methanone], the inhibition at 10 µM on human ME2 enzyme, at human ME3 enzyme and at human ME1 enzyme was > 90% throughout.
For `O=C(CCc1c(F)cccc1F)N1CCN(c2ccc(O)cn2)CC1` [I.157, 3-(2,6-Difluoro-phenyl)-1-[4-(5-hydroxy-pyridin-2-yl)-piperazin-1-yl]-propan-1-one], the inhibition at 10 µM at human ME2 enzyme, on human ME3 enzyme and at human ME1 enzyme was > 90% throughout.
`O=C(Cc1c[nH]c2cc(F)ccc12)N1CCN(c2ccc(O)cn2)CC1` [I.158, 2-(6-Fluoro-1H-indol-3-yl)-1-[4-(5-hydroxy-pyridin-2-yl)-piperazin-1-yl]-ethanone]: the inhibition at 10 µM at human ME2 enzyme, on human ME3 enzyme and at human ME1 enzyme was > 90% in each case.
Take `O=C(Cc1c[nH]c2ccc(Cl)cc12)N1CCN(c2ccc(O)cn2)CC1` [I.159, 2-(5-Chloro-1H-indol-3-yl)-1-[4-(5-hydroxy-pyridin-2-yl)-piperazin-1-yl]-ethanone]: the inhibition at 10 µM at human ME2 enzyme, on human ME3 enzyme and at human ME1 enzyme was > 90% throughout.
